Source: patent US9434763B2, “Derivatives of pyridinone as inhibitors for tissue transglutaminase” (ZEDIRA GMBH, priority 2012, dated 2016)

Assays:
Format in all cases: biochemical
Conditions in all cases: casein as substrate
TG6 (transglutaminase 6) = target: T1, TG6 (transglutaminase 6) (Homo sapiens, UniProt O95932); assay: Comparative transglutaminase selectivity assay with casein and dansylcadaverine as substrates: TG6
T1 construct: purchased Zedira T021
T1 sequence (O95932 1-706): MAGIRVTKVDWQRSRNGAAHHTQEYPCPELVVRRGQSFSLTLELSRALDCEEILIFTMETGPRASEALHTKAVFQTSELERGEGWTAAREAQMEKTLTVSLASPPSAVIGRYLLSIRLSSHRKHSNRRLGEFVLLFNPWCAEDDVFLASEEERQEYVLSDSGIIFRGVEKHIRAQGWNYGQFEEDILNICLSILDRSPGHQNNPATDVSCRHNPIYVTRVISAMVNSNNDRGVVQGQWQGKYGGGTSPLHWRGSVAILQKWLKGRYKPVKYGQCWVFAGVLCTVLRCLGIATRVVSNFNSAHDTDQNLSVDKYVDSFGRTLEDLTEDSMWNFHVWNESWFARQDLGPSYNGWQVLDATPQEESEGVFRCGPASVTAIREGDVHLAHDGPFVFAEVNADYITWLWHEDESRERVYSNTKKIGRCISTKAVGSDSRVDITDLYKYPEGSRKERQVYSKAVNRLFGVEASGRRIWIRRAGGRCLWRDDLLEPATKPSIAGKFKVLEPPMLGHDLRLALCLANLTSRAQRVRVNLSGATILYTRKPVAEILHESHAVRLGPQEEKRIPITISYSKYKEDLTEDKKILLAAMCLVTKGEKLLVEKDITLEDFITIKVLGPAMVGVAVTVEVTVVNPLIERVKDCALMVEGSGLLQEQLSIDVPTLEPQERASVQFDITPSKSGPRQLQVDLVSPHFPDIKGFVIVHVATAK
Description: (§1) The comparative determination of different transglutaminases to determine the selectivity was made with casein and dansylcadaverine as substrates. Therefore, the kit T036 (Zedira, Darmstadt; Refs: Lorand et al, Anal Biochem, 1971, 44:221-31) as well as transglutaminase products T009 (transglutaminase 1), T012 (transglutaminase 3), T021 (transglutaminase 6) and T027 (plasma transglutaminase, factor XIII) are used. Therefore, two different IC50 values for the compounds are given.
(§2) The evaluation of the resulting enzyme activity is done using the slope of the straight line obtained by the increase in fluorescence.
(§3) To determine the non-inhibited enzyme activity, DMSO instead of inhibitor stock solution is used. IC50 values are determined by plotting the resulting enzyme activity against the logarithm of the inhibitor concentration. IC50 is defined as the concentration of inhibitor resulting in 50% of enzyme activity.
(§4) It should be noted that it was measured here against casein as substrate, which is why other apparent inhibition values (IC50 value) result.

TG1 (transglutaminase 1) = target: T2, TG1 (transglutaminase 1) (Homo sapiens, UniProt P22735); assay: Comparative transglutaminase selectivity assay with casein and dansylcadaverine as substrates: TG1
T2 construct: purchased Zedira T009
T2 sequence (P22735 1-817): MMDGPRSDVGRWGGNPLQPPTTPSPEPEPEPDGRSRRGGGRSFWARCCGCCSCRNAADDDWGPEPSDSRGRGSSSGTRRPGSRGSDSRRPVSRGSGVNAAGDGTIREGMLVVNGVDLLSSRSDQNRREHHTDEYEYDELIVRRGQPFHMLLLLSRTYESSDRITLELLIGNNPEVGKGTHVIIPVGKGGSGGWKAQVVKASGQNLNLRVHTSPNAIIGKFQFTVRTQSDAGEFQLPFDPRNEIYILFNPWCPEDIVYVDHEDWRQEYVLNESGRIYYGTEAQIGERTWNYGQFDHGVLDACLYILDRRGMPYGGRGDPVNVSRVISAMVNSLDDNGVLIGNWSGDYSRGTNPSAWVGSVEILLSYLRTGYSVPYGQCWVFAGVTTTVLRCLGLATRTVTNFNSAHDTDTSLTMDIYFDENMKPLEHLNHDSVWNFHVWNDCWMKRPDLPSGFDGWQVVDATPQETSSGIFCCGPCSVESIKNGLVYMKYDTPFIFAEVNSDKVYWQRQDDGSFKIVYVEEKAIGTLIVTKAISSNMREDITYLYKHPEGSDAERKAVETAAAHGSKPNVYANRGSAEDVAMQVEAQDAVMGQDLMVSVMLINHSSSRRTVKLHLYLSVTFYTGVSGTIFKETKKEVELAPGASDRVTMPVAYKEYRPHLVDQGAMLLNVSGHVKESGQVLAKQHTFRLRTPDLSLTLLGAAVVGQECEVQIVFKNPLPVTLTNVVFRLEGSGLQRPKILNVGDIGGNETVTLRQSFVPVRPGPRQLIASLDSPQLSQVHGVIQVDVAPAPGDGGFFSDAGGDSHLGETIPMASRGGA
Description: as §1, §2, §3, §4

TG3 (transglutaminase 3) = target: T3, TG3 (transglutaminase 3) (Homo sapiens, UniProt Q08188); assay: Comparative transglutaminase selectivity assay with casein and dansylcadaverine as substrates: TG3
T3 construct: purchased Zedira T012
T3 sequence (Q08188 1-693): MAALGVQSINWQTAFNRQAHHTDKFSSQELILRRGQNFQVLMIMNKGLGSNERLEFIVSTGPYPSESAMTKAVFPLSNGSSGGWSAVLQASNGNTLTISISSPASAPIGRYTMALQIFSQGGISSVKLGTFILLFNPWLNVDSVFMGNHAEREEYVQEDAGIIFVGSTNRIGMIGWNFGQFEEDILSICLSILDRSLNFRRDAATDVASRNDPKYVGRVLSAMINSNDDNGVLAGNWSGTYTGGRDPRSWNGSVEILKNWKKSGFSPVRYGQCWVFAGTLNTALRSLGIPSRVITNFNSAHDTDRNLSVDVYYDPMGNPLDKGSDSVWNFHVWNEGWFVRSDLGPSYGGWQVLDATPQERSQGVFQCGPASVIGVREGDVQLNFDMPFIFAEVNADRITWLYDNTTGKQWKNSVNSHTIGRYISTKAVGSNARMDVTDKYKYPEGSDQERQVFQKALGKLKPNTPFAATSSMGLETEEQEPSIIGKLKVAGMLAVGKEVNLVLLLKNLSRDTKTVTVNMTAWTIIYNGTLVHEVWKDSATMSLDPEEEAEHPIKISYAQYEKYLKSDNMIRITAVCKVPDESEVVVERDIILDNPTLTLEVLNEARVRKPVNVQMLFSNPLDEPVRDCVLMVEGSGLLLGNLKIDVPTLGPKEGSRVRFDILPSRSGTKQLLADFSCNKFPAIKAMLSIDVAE
Description: as §1, §2, §3, §4

## CCC(CC)CNC(=O)Cn1cccc(NC(=O)[C@H](CC/C=C/C(=O)OC)NC(=O)c2cncn2C)c1=O [A63, (S,E)-Methyl 7-(1-(2-(2-ethylbutylamino)-2-oxoethyl)-2-oxo-1,2-dihydropyridin-3-ylamino)-6-(1-methyl-1H-imidazole-5-carboxamido)-7-oxohept-2-enoate]
TG6 (transglutaminase 6)
  IC50: 31.5 µM
TG1 (transglutaminase 1)
  IC50: 51.8 µM
TG3 (transglutaminase 3)
  IC50: 73.9 µM

## COC(=O)/C=C/CC[C@H](NC(C)=O)C(=O)Nc1cccn(CC(=O)NCCC(C)C)c1=O [A29, (S,E)-methyl 6-acetamido-7-(1-(2-(isopentylamino)-2-oxoethyl)-2-oxo-1,2-dihydropyridin-3-ylamino)-7-oxohept-2-enoate]
TG6 (transglutaminase 6)
  IC50: 83.3 µM
TG1 (transglutaminase 1)
  IC50: 28.1 µM
TG3 (transglutaminase 3)
  IC50: 70.9 µM

## CCOC(=O)/C=C/CC[C@H](NC(=O)c1cncn1C)C(=O)Nc1cccn(CC(=O)NCCC(C)C)c1=O [A19, (S,E)-Ethyl 7-(1-(2-(isopentylamino)-2-oxoethyl)-2-oxo-1,2-dihydropyridin-3-ylamino)-6-(1-methyl-1H-imidazole-5-carboxamido)-7-oxohept-2-enoate]
TG6 (transglutaminase 6)
  IC50: 54.3 µM
TG1 (transglutaminase 1)
  IC50: 96 µM
TG3 (transglutaminase 3)
  IC50: 128 µM

## CCOC(=O)/C=C/CC[C@H](NC(=O)c1ccccc1)C(=O)Nc1cccn(CC(=O)N[C@H](C(=O)O)[C@H](C)CC)c1=O [A59, (2S,3R)-2-(2-(3-((S,E)-2-Benzamido-7-ethoxy-7-oxohept-5-enamido)-2-oxopyridin-1(2H)-yl)acetamido)-3-methylpentanoic acid]
TG6 (transglutaminase 6)
  IC50: 9.3 µM
TG1 (transglutaminase 1)
  IC50: 37.1 µM
TG3 (transglutaminase 3)
  IC50: 41.1 µM

## CCOC(=O)/C=C/CC[C@H](NC(=O)CCC(=O)O)C(=O)Nc1cccn(CC(=O)NCC(CC)CC)c1=O [A30, (S,E)-4-(7-Ethoxy-1-(1-(2-(2-ethylbutylamino)-2-oxoethyl)-2-oxo-1,2-dihydropyridin-3-ylamino)-1,7-dioxohept-5-en-2-ylamino)-4-oxobutanoic acid]
TG6 (transglutaminase 6)
  IC50: 32.8 µM
TG1 (transglutaminase 1)
  IC50: 113 µM
TG3 (transglutaminase 3)
  IC50: 69 µM

## CCOC(=O)/C=C/CC[C@H](NC(C)=O)C(=O)Nc1cccn(CC(=O)N[C@H](C(=O)OC)[C@H](C)CC)c1=O [A35, (S,E)-ethyl 6-acetamido-7-(1-(2-((2S,3R)-1-methoxy-3-methyl-1-oxopentan-2-ylamino)-2-oxoethyl)-2-oxo-1,2-dihydropyridin-3-ylamino)-7-oxohept-2-enoate]
TG6 (transglutaminase 6)
  IC50: 21.3 µM
TG1 (transglutaminase 1)
  IC50: 87.1 µM
TG3 (transglutaminase 3)
  IC50: 95.8 µM

## COC(=O)/C=C/CC[C@H](NC(C)=O)C(=O)Nc1cccn(CC(=O)N2CCC(C(F)(F)F)CC2)c1=O [A65, (S,E)-Methyl 6-acetamido-7-oxo-7-(2-oxo-1-(2-oxo-2-(4-(trifluoromethyl)piperidin-1-yl)ethyl)-1,2-dihydropyridin-3-ylamino)hept-2-enoate]
TG6 (transglutaminase 6)
  IC50: 37.7 µM
TG1 (transglutaminase 1)
  IC50: 120 µM
TG3 (transglutaminase 3)
  IC50: 100 µM

## CC[C@@H](C)[C@H](NC(=O)Cn1cccc(NC(=O)[C@H](CC/C=C/C(=O)OC)NC(=O)c2cncn2C)c1=O)C(=O)O [A60, (2S,3R)-2-(2-(3-((S,E)-7-Methoxy-2-(1-methyl-1H-imidazole-5-carboxamido)-7-oxohept-5-enamido)-2-oxopyridin-1(2H)-yl)acetamido)-3-methylpentanoic acid]
TG6 (transglutaminase 6)
  IC50: 11.5 µM
TG1 (transglutaminase 1)
  IC50: 31.1 µM
TG3 (transglutaminase 3)
  IC50: 42.3 µM

## CC[C@@H](C)[C@H](NC(=O)Cn1cccc(NC(=O)[C@H](CC/C=C/C(=O)OC)NC(=O)c2ccccc2)c1=O)C(=O)O [A61, (2S,3R)-2-(2-(3-((S,E)-2-benzamido-7-methoxy-7-oxohept-5-enamido)-2-oxopyridin-1(2H)-yl)acetamido)-3-methylpentanoic acid]
TG6 (transglutaminase 6)
  IC50: 4.3 µM
TG1 (transglutaminase 1)
  IC50: 15.3 µM
TG3 (transglutaminase 3)
  IC50: 17.6 µM

## CCOC(=O)/C=C/CC[C@H](NC(C)=O)C(=O)Nc1cccn(CC(=O)NCC(CC)CC)c1=O [A62, (S,E)-Ethyl 6-acetamido-7-(1-(2-(2-ethylbutylamino)-2-oxoethyl)-2-oxo-1,2-dihydropyridin-3-ylamino)-7-oxohept-2-enoate]
TG6 (transglutaminase 6)
  IC50: 47 µM
TG1 (transglutaminase 1)
  IC50: 133 µM
TG3 (transglutaminase 3)
  IC50: 99.7 µM

## CCOC(=O)/C=C/CC[C@H](NC(C)=O)C(=O)Nc1cccn(CC(=O)NCCC(C)C)c1=O [A7, (S,E)-Ethyl 6-acetamido-7-(1-(2-(isopentylamino)-2-oxoethyl)-2-oxo-1,2-dihydropyridin-3-ylamino)-7-oxohept-2-enoate]
TG6 (transglutaminase 6)
  IC50: 51 µM
TG1 (transglutaminase 1)
  IC50: 28.8 µM
TG3 (transglutaminase 3)
  IC50: 84.1 µM

## CCOC(=O)/C=C/CC[C@H](NC(=O)c1cncn1C)C(=O)Nc1cccn(CC(=O)N[C@H](C(=O)O)[C@H](C)CC)c1=O [A53, (2S,3R)-2-(2-(3-((S,E)-7-Ethoxy-2-(1-methyl-1H-imidazole-5-carboxamido)-7-oxohept-5-enamido)-2-oxopyridin-1(2H)-yl)acetamido)-3-methylpentanoic acid]
TG6 (transglutaminase 6)
  IC50: 26.2 µM
TG1 (transglutaminase 1)
  IC50: 68.9 µM
TG3 (transglutaminase 3)
  IC50: 72.6 µM

## CCOC(=O)/C=C/CC[C@H](NC(=O)CCC(=O)O)C(=O)Nc1cccn(CC(=O)NCCC(C)C)c1=O [A24, (S,E)-4-(7-Ethoxy-1-(1-(2-(isopentylamino)-2-oxoethyl)-2-oxo-1,2-dihydropyridin-3-ylamino)-1,7-dioxohept-5-en-2-ylamino)-4-oxobutanoic acid]
TG6 (transglutaminase 6)
  IC50: 38.5 µM
TG1 (transglutaminase 1)
  IC50: 91.9 µM
TG3 (transglutaminase 3)
  IC50: 119 µM

## COC(=O)/C=C/CC[C@H](NC(C)=O)C(=O)Nc1cccn(CC(=O)N2CCCC(C)C2)c1=O (stereo partly drawn) [A64, (6S,E)-Methyl 6-acetamido-7-(1-(2-(3-methylpipendin-1-yl)-2-oxoethyl)-2-oxo-1,2-dihydropyridin-3-ylamino)-7-oxohept-2-enoate]
TG6 (transglutaminase 6)
  IC50: 109 µM
TG1 (transglutaminase 1)
  IC50: 122 µM
TG3 (transglutaminase 3)
  IC50: 125 µM

## CCOC(=O)/C=C/CC[C@H](NC(=O)c1cncn1C)C(=O)Nc1cccn(CC(=O)NCC(CC)CC)c1=O [A58, (S,E)-Ethyl 7-(1-(2-(2-ethylbutylamino)-2-oxoethyl)-2-oxo-1,2-dihydropyridin-3-ylamino)-6-(1-methyl-1H-imidazole-5-carboxamido)-7-oxohept-2-enoate]
TG6 (transglutaminase 6)
  IC50: 66 µM
TG1 (transglutaminase 1)
  IC50: 97.5 µM
TG3 (transglutaminase 3)
  IC50: 109 µM
